Experimental data taken from paper PMC11219860, “A chemogenetic approach for dopamine imaging with tunable sensitivity” (Nature Communications, 2024).
Where two headings read alike, the source gives them in different places.

Legend:
[1] = set-up: method as in Rajagopal et al., 2024; conditions: ref Rajagopal et al., 2024, cited from earlier work
dLight1.3b [2] = assay: Two-photon dLight1.3b imaging in acute brain slices; set-up: species or system mouse
Description: Coronal brain slices (240 µm) containing the striatum and PFC were prepared from AAV-injected mice after 3–4 weeks of viral expression. Briefly, mice were deeply anesthetized with isoflurane and trans-cardially perfused with ice-cold cutting solution containing (in mM): 75 NaCl, 50 sucrose, 6 MgCl2, 2.5 KCl, 1.2 NaH2PO4, 0.1 CaCl2, 25 NaHCO3, and 2.5 D-glucose (bubbled with 5% CO2 in O2). The brain was quickly removed and sectioned using a vibrating blade microtome (VT1200S; Leica) before slices were transferred to an incubation chamber filled with artificial cerebrospinal fluid (ACSF) containing (in mM): 126 NaCl, 2.5 KCl, 1.2 MgCl2, 1.2 NaH2PO4, 2.5 CaCl2, 21.4 NaHCO3, 11.1 D-glucose and 10 µM MK-801 (34 °C, bubbled with 5% CO2 in O2, pH 7.4). After 45 min equilibration, slices were individually transferred to a recording chamber for 2 P imaging. NMDA, AMPA, GABA-A, nicotinic, and muscarinic receptors were blocked using 10 µM MK801, 10 µM DNQX, 100 µM picrotoxin, 1 µM DHBE, and 0.3 µM scopolamine, respectively. Changes of dLight fluorescence were measured by 2 P laser scanning microscopy, using a custom-built BX51WI microscope (Olympus). Excitation (920 nm) was provided by a pulsed Ti:Sapphire laser (Chameleon Ultra I; Coherent) and scanned using a pair of X-Y galvanometer mirrors (6215; Cambridge Technology). Emission was collected by a water immersion objective (60x, N.A. 1.00; Olympus) and filtered (ET680sp and ET525/50m-2P; Chroma) before detection by GaAsP photomultiplier tube (PMT, H10770PA-40; Hamamatsu). The temporal kinetics of fluorescence changes were captured using fast acquisition speed (2 kHz), ‘spot photometry’ (Toronado; B.W. Strowbridge), by scanning the laser around a circular path ([…] diameter) centered at the tip of the stimulating electrode or iontophoresis pipette which was visualized in the red channel (ET620/60 m; Chroma). The spatial dynamics of dLight fluorescence were captured by rasterized movie acquisition (30 × 40 µm, 3 Hz) and analyzed using ImageJ. Exogenous DA was applied by iontophoresis, using a thin-walled glass pipette filled with DA (1 M) and sulforhodamine 101 (300 µM), and ejected by short pulses of positive current ( + 20 to +200 nA, 5 ms) with a negative retention current to prevent DA leakage (−10 to −15 nA). Endogenous DA release was evoked by electrical stimulation using a double-tipped electrode pulled from septum theta glass capillaries (WPI), visualized with sulforhodamine 101 (10 µM). A single pulse (10 µA, 0.5 ms) was used to evoke DA release in striatal slices, while a train of stimuli (5 × 20 µA at 25 Hz) was used in cortical slices. Changes of fluorescence are expressed as ∆F/F0, wherein baseline fluorescence (F0) was measured from the 300 ms before DA stimulation in spot photometry measurements, or defined as the average of 10 frames preceding stimulation in rasterized movies. Peak ∆F/F0 was calculated by maximum peak detection from the time period following stimulation ( ~ 500 ms) or from the rasterized frame immediately following stimulation. Data were analyzed in AxoGraph (J. Clements) and ImageJ.

[3] = target: T1, mouse DA transporter (DAT) (Mus musculus, UniProt Q61327); assay: Fast-scan cyclic voltammetry of DA release in striatal slices; conditions: bath application: DETQ 200 nM; cocaine 5 µM
T1 construct: Lack of DETQ effect on the endogenous DA transporter; from tissue; host or cells: mouse striatal brain slices
Description: Striatal DA release was measured using fast-scan cyclic voltammetry (FSCV) with a carbon fiber electrode (CFE; diameter 7 µm, length 50–100 µm) positioned approximately 100 µm below the surface of the slice. The CFE was scanned across a triangular waveform (−0.4 to +1.3 V, 400 V/s) at 10 Hz, and DA release was evoked by single-pulse electrical stimulation (30 µA, 0.5 ms) with an inter-stimulus interval of 180 s. DA release was evoked in the presence of DHBE (1 µM) to block nicotinic acetylcholine receptors. Peak background-subtracted DA oxidation current was measured at +0.6 V, and drugs were washed on after establishing a stable baseline.

dLight1.3b [4] = assay: NAc dLight1.3b photometry with food restriction; assay type: in vivo, mouse; conditions: DETQ 10 mg/kg
Description: To determine how metabolic state modulates tonic DA levels, DAT^IREScre mice expressing dLight1.3b in the NAc core were tested in either the fed state (ad libitum), the food-restricted state (mice food restricted to 90% of baseline body weight for 5–7 days), or after 4 weeks recovery from food-restriction (ad libitum). Daily food intake was measured per cage (2–3 mice per cage). […] Mice were injected i.p. with vehicle at 0 min and DETQ (10 mg/kg) 10–15 min later, then recording lasted 50 min.
For long-term recordings during optogenetic stimulation or chemogenetic inhibition linear fit was calculated across the entire recording or across the vehicle epoch; for event-related experiments fit was performed on fluorescent data obtained in the −60 to +60 s around opto events or −5 to −1 s around behavioral events. […] DA event-related responses were quantified by computing the value at the transient’s peak value and the AUC in the 0 to 10 s or 0 to 60 s period post-event onset. […] The maximal peak value of Veh-normalized ΔF/F0 after opto-onset was plotted over time and the plateau of maximal response was determined by averaging peak opto responses 5, 10, 15 and 20 min post-DETQ. […] AUC of the baseline was calculated within the +5 to +40 minutes time window post ip injection. […]

T1 sequence (Q61327 whole entry): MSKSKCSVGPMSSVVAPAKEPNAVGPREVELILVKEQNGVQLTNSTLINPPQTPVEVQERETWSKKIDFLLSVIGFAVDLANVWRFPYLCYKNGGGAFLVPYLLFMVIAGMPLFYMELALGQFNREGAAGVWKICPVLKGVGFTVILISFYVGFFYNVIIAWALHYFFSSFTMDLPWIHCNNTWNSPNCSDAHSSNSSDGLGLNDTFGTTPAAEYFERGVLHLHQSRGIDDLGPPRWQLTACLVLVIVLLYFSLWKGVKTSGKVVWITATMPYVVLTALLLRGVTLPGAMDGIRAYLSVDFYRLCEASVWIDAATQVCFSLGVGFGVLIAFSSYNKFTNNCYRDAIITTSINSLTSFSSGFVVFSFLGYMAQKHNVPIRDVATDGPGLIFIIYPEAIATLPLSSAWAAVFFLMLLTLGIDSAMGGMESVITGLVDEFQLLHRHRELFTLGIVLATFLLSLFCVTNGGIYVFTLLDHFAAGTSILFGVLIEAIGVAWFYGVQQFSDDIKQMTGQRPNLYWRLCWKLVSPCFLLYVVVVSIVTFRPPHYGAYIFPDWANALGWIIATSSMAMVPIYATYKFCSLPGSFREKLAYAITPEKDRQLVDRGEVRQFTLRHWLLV

## C[C@H]1c2cccc(C(C)(C)O)c2C[C@H](CO)N1C(=O)Cc1c(Cl)cccc1Cl [DETQ, 2-(2,6-dichlorophenyl)-1-((1S,3R)-3-(hydroxymethyl)-5-(2-hydroxypropan-2-yl)-1-methyl-3,4-dihydroisoquinolin-2(1H)-yl)ethan-1-one]
[1]; aged hD1 mice, PO 3-10 mg/kg
  deficits in Novel Object Recognition and Social Interaction: fully reversed these deficits
[1]; aged wild type mice
  deficits in Novel Object Recognition and Social Interaction: failed to reverse these deficits
dLight1.3b [2]; 5 × 20 µA, 0.5 ms, 25 Hz, DETQ
  fluorescence changes evoked by train of stimuli in PFC slices: unmask small increases
dLight1.3b [2]; DA iontophoresis 20 nA, DETQ 200 nM
  area of dLight1.3b ∆F/F0 >2σ noise: significantly increased
dLight1.3b [2]; dorsal striatum slices, 10 µA, 0.5 ms, DETQ
  peak ∆F/F0 and area (>2σ noise) evoked by single electrical stimulation: significantly enhanced
dLight1.3b [2]; ejection current 50 nA, DETQ 200 nM
  decay time of fluorescence changes (spot photometry): slowed
dLight1.3b [2]; striatal slices, DA iontophoresis, DETQ 200 nM
  increase of dLight sensitivity (peak ∆F/F0 over ejection currents): 2.6 fold
[3]
  decay constant (tau) of DA signals: no effect
  peak DA release: no effect
dLight1.3b [4]
  step-like increase in baseline fluorescence, food-restriction versus ad libitum state: significantly higher
